Test results: article PMC12595434, “Development of retinoid nuclear receptor pathway antagonists through targeting aldehyde dehydrogenase 1A3” (iScience, 2025)

Tests used:
NPTN = assay: Cellular thermal shift assay (CETSA) in A375 cells; type: cell-based, human; conditions: 100 nM, 1h at 37°C
Procedure: CETSA was performed according to protocols described before.[85] Briefly, 6 × 10cm dishes of A375 cells were collected and treated with 100 nM MBE1 or 0.1% DMSO for 1h at 37°C. Afterward, cells were pelleted through centrifugation at 300g for 5 min. Cells were then washed with ice-cold PBS and resuspended in 800 μL of PBS. Cell suspension was aliquoted to 7xPCR tubes with 100 μL each and subjected to thermal denaturation at 46.3, 48.6, 52.2, 56.5, 60.1, 62.5, 64.0°C for 3 min. The resulting sample was snap frozen in liquid nitrogen followed by incubation at room temperature until fully thawed. This procedure was performed twice followed by brief vortexing and mixing to release soluble proteins from the cells. Samples were then transferred to 1.5 mL Eppendorf tubes and centrifuged at 20,000g for 20 min at 4°C, 90 μL of the resulting supernatant was collected into another new 1.5 mL Eppendorf tube and subjected to protein analysis by western blot (WB). NPTN (proteintech #28022-1-AP) and ALDH1A3 (abcam #ab129815) were used to detect target proteins while GelCode Blue Stain Reagent (Thermofisher scientific #24590) was used to stain for total proteins loaded in the WB analysis.

C19orf66 = molecular target: T1, C19orf66 (Homo sapiens, UniProt Q9NUL5); assay: Thermal proteome profiling (TPP) in A375 cells; type: cell-based; conditions: C19orf66, 1 uM
T1 construct: Treated A375 cells were harvested from 10 × 15 cm plates; endogenous in cells; host or cells: A375 melanoma cells
T1 sequence (Q9NUL5 whole entry): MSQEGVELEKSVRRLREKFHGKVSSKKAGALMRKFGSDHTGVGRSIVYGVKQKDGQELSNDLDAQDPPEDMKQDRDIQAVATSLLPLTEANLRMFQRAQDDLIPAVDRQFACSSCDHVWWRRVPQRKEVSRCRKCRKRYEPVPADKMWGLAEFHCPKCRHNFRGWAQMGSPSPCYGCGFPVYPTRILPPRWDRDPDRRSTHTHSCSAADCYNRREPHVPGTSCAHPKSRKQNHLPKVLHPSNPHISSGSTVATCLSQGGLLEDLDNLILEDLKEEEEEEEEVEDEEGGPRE

M1 = M1 (Homo sapiens, UniProt P11229); assay: biochemical; type: binding; conditions: read-out: Inhibition by MBE1 at 10 μM (%)
M1, sequence (P11229 whole entry): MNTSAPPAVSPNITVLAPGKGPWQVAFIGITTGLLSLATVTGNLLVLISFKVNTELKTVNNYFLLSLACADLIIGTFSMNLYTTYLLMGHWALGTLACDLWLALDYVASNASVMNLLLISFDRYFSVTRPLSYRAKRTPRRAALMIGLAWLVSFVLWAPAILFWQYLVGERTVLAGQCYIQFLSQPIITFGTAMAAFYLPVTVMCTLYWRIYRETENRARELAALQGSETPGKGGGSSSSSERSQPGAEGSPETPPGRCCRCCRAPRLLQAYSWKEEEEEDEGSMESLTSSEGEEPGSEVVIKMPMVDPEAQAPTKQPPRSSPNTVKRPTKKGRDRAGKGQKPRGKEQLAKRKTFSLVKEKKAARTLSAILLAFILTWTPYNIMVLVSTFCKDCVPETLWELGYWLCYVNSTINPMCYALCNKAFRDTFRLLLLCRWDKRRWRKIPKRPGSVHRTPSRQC

5HT3 = 5HT3 (Homo sapiens, UniProt P46098); assay: Off-target profiling panel; type: binding; conditions: read-out: Inhibition by MBE1 at 10 μM (%)
5HT3, sequence (P46098 24-478): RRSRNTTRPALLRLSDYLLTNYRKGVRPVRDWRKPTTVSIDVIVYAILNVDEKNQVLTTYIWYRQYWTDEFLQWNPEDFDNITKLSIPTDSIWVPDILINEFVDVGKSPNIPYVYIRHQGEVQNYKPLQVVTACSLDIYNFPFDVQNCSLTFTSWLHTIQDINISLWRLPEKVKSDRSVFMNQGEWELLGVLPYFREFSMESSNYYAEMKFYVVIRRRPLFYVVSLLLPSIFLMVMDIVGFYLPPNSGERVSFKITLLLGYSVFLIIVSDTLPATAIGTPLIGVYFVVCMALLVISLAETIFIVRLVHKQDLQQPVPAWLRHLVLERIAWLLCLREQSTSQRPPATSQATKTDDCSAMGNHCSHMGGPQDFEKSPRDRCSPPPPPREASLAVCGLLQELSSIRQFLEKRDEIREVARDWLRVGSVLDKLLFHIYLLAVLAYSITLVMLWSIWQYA

PDE3A = PDE3A (Homo sapiens, UniProt Q14432); assay: Off-target profiling panel; type: biochemical
PDE3A, sequence (Q14432 whole entry): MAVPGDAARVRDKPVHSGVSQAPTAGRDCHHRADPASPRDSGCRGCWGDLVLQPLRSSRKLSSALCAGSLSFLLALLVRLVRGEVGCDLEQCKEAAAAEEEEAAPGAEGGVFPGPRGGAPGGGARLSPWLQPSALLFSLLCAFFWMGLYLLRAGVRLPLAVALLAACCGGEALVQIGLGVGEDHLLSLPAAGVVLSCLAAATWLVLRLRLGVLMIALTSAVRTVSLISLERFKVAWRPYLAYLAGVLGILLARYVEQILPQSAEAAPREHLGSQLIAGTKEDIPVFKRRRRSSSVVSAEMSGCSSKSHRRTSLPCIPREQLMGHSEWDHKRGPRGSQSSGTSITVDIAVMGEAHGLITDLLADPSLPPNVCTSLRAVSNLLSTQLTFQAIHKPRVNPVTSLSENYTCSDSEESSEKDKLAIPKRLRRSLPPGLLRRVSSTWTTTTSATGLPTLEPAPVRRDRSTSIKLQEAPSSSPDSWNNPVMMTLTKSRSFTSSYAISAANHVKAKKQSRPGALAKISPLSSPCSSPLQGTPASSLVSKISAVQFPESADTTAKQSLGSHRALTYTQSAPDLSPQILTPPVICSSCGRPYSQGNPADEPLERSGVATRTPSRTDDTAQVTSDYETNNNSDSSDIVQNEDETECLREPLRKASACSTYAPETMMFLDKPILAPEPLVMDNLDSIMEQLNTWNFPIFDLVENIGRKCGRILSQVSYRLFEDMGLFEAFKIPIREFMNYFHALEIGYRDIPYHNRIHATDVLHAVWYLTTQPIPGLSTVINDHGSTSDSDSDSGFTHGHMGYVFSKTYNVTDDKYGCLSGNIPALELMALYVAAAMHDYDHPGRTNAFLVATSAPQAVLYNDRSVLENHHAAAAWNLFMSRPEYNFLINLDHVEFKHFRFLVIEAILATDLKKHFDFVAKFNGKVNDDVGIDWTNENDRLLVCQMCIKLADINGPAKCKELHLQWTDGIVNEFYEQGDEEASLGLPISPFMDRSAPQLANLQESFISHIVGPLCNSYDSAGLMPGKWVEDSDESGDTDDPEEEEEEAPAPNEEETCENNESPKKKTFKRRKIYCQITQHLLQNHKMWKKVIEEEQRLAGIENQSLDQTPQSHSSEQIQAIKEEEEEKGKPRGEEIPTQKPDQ

hNav1.5 = hNav1.5 (Homo sapiens, UniProt Q14524); assay: Off-target profiling panel; type: cell-based; conditions: read-out: Inhibition by MBE1 at 10 μM (%)
hNav1.5, sequence (Q14524 whole entry): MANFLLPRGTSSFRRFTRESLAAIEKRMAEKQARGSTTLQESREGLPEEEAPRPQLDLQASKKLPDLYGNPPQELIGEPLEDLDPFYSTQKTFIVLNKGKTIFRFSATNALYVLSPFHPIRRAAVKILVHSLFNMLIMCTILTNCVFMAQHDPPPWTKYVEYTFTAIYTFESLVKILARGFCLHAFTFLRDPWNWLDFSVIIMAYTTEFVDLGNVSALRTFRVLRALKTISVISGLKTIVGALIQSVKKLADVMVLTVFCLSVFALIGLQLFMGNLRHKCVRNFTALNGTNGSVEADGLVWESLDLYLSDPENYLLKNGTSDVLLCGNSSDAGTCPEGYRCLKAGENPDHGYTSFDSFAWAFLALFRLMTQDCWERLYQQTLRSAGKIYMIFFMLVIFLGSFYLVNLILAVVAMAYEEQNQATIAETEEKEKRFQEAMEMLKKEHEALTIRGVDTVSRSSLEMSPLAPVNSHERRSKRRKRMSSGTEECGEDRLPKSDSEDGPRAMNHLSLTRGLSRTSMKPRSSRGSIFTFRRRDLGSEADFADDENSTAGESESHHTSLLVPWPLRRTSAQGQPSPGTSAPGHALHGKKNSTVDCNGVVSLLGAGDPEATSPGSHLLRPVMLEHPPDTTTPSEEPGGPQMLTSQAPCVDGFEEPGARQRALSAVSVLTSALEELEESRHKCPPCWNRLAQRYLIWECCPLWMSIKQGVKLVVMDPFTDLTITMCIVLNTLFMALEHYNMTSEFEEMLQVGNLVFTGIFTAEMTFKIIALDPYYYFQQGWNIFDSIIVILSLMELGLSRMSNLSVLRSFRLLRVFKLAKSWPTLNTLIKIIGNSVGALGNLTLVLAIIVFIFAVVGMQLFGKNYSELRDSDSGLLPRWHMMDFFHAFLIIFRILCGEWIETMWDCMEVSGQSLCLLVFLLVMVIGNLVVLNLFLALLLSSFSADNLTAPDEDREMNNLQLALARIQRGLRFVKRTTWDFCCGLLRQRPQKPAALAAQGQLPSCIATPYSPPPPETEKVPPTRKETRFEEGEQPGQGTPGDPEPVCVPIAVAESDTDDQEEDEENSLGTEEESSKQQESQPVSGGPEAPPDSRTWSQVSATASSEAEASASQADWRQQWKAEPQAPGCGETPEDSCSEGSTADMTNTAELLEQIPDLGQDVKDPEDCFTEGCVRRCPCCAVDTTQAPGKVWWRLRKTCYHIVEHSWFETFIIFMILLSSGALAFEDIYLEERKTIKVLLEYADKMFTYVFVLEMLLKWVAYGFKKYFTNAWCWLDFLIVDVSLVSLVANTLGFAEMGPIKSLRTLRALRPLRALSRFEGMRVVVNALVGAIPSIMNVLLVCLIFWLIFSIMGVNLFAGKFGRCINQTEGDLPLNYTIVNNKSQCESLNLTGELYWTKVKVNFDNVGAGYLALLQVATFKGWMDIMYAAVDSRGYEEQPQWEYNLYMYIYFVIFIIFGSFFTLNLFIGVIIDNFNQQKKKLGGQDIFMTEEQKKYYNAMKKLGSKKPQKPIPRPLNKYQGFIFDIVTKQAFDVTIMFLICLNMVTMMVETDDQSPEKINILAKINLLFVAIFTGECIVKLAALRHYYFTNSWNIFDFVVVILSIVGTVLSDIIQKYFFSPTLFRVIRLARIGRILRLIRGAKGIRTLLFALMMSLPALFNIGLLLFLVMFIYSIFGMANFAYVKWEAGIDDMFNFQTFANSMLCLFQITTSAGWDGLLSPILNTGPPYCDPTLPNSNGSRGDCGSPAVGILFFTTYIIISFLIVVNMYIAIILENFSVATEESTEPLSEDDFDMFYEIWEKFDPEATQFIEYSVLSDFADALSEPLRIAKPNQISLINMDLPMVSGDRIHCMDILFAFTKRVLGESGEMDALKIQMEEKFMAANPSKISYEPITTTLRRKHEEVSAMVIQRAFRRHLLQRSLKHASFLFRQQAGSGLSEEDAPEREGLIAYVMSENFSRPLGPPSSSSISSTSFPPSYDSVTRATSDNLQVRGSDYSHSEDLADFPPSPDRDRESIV

MDA-MB-468 cells = conditions: MDA-MB-468, 24 hour incubation, highest tested dose 10 μM
purified human ALDH1A3 = molecular target: T2, purified human ALDH1A3 (Homo sapiens, UniProt P47895); assay: Nanoscale differential scanning fluorimetry (DSF); type: binding; conditions: 10 and 100 μM
T2 construct: made in house; host or cells: BL21-DE3 E. coli
T2 sequence (P47895 whole entry): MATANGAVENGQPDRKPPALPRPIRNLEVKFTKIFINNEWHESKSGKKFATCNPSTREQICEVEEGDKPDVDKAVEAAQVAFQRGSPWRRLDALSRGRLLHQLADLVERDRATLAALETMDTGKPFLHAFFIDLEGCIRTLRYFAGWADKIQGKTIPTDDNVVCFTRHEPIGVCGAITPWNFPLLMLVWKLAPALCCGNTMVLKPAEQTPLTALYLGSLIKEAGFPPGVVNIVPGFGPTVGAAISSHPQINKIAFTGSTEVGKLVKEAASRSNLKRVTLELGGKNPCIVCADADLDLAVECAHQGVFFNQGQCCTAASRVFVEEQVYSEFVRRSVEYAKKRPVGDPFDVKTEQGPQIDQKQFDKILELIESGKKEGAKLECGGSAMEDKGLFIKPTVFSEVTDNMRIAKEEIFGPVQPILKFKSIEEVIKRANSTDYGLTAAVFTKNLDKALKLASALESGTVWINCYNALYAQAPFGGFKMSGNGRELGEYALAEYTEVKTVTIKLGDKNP

[1] = molecular target: T3, ALDH1A3 in MCF7 or SUM159-M1a-ALDH1A3 knockout cells (Homo sapiens, UniProt P47895); assay: Aldefluor dose titration, cells with ectopic ALDH1A3; type: cell-based
T3 construct: expressed in transfected cells; host or cells: MCF7 wild-type; SUM159-M1a-ALDH1A3 knockout
T3 sequence (P47895 whole entry): as above
Procedure: Next, we developed three orthogonal methods to assess MBE1.5 selectivity and potency in cellular assays, as these cellular assays provide a more physiologically relevant method to assess target engagement and specificity. […] We confirmed expression of each enzyme and then performed a dose titration of the Aldefluor assay in each cell derivative with MBE1.5. […] Therefore, we performed thermal proteome profiling (TPP) on A375 melanoma cells exposed to DMSO, 100 nM MBE1, and 1 μM MBE1. […] These two doses would be expected to saturate ALDH1A3 binding based on the biochemical affinity while the high dose may be expected to identify potential MBE1 off-targets. […] We next assessed for melting point changes in the dataset using a 1.5°C cutoff and p < 0.05; 112 proteins were identified in the comparison between 100 nM MBE1 and DMSO, including ALDH1A3. […] Finally, we validated that MBE1.5 blocked the physiological function of ALDH1A3 by testing a dose titration of MBE1.5 in the retinoid inhibition assay using MCF7-ALDH1A3 cell-based readout.
In addition, cells were suspended at a concentration of 100,000 cells per mL. […] Cells were analyzed by a BD LSRII for flow cytometry and were sorted using a FACSAria Fusion cell sorter (BD Biosciences) equipped with a 70 micron nozzle. […]

[2] = test system: panel of 23 human cancer cell lines; assay: Aldefluor assay, panel of 23 human cancer cell lines; type: cell-based; conditions: 100 nM; most solid cancer types except liver cancer
Procedure: To determine the breadth of ALDH1A3 activity across human cancers and assess the target engagement of these discovered compounds across tumor models, we profiled a panel of 23 human cancer cell lines with the Aldefluor assay. […] Next, we assessed whether ALDH1A3 affects cell growth across this broad panel of cancer types by testing proliferation for each cell line with and without MBE1.5.
In addition, cells were suspended at a concentration of 100,000 cells per mL. Finally, DMSO was added to at 1% final in all cells to improve kinetics of the assay. For compound titrations, concentrated compound stock was added first to tubes and a uniform Aldefluor buffer containing the cell suspension was added to dilute to final volumes. Cells were analyzed by a BD LSRII for flow cytometry and were sorted using a FACSAria Fusion cell sorter (BD Biosciences) equipped with a 70 micron nozzle. Sample and sort collection tubes were kept at 4°C. […] DAPI was used as a live-dead indicator.

CCc1cnccc1C(=O)Nc1cc2c(cc1F)NC(=O)CC2 [MBE1, 3-ethyl-N-(7-fluoro-2-oxo-3,4-dihydro-1H-quinolin-6-yl)pyridine-4-carboxamide]
stabilization of NPTN in CETSA (in words) (NPTN): not stabilized | 1uM MBE1 Tm (C19orf66): 53.8379 | inhibition at 10 µM (M1): -7.68% | inhibition at 10 µM (5HT3): -18.6% | inhibition at 10 µM (PDE3A; read-out: Inhibition by MBE1 at 10 μM (%)): 75.8% | concentration for PDE3α interaction as multiple of IC50 against ALDH1A3 (PDE3A; screen against 44 off-target proteins): > 100 fold | inhibition at 10 µM (hNav1.5): -0.59% | nonspecific cytotoxicity (in words) (MDA-MB-468 cells): nontoxic

CCc1ccccc1C(=O)Nc1cc2c(cc1F)NC(=O)CC2 [MBE1.5, 2-ethyl-N-(7-fluoro-2-oxo-3,4-dihydro-1H-quinolin-6-yl)benzamide]
thermal stabilization of purified ALDH1A3 (purified human ALDH1A3): > 8.5 °C | inhibition of ALDH1A3 in Aldefluor assay (in words) [1]: high potency | inhibition of Aldefluor activity across cancer cell line panel (in words) [2]: potently inhibited Aldefluor activity
